Assay results reported in PubChem BioAssay (NCI).
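1) Cells in 96-well plates. 2) Compound, 48 h, 5 concentrations. 3) Linear interpolation between surrounding doses. 4) Unreached endpoint = highest concentration. TGI denotes the concentration required for complete inhibition of growth.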

What was measured:
Assay in all cases: NCI anticancer screen, dose series, 48 h
UO-31 renal = system: UO-31 renal
HT29 colon = system: HT29 colon
MOLT-4 leukemia = system: MOLT-4 leukemia
SF-268 CNS = system: SF-268 CNS
BT-549 breast = system: BT-549 breast
SNB-19 CNS = system: SNB-19 CNS
MCF7 breast = system: MCF7 breast
M14 melanoma = system: M14 melanoma
RXF 393 renal = system: RXF 393 renal
SK-MEL-2 melanoma = system: SK-MEL-2 melanoma
HS 578T breast = system: HS 578T breast
NCI-H460 lung = system: NCI-H460 lung
U251 CNS = system: U251 CNS
OVCAR-8 ovarian = system: OVCAR-8 ovarian
K-562 leukemia = system: K-562 leukemia
NCI-H522 lung = system: NCI-H522 lung
NCI-H226 lung = system: NCI-H226 lung
SNB-75 CNS = system: SNB-75 CNS
ACHN renal = system: ACHN renal
MALME-3M melanoma = system: MALME-3M melanoma
CCRF-CEM leukemia = system: CCRF-CEM leukemia
T-47D breast = system: T-47D breast
COLO 205 colon = system: COLO 205 colon
LOX IMVI melanoma = system: LOX IMVI melanoma
IGROV1 ovarian = system: IGROV1 ovarian
TK-10 renal = system: TK-10 renal
MDA-N = system: MDA-N
OVCAR-5 ovarian = system: OVCAR-5 ovarian
UACC-257 melanoma = system: UACC-257 melanoma
HOP-92 NSCLC = system: HOP-92 NSCLC
SN12C renal = system: SN12C renal
CAKI-1 renal = system: CAKI-1 renal
RPMI-8226 leukemia = system: RPMI-8226 leukemia
UACC-62 melanoma = system: UACC-62 melanoma
SF-539 CNS = system: SF-539 CNS
SK-MEL-5 melanoma = system: SK-MEL-5 melanoma
EKVX NSCLC = system: EKVX NSCLC
DU-145 prostate = system: DU-145 prostate
PC-3 prostate = system: PC-3 prostate
MDA-MB-231 breast = system: MDA-MB-231 breast
HL-60(TB) leukemia = system: HL-60(TB) leukemia
A549 NSCLC = system: A549 NSCLC
MDA-MB-435 = system: MDA-MB-435
HCT-15 colon = system: HCT-15 colon
786-0 renal = system: 786-0 renal
NCI-H23 lung = system: NCI-H23 lung
SK-MEL-28 melanoma = system: SK-MEL-28 melanoma
HCT-116 colon = system: HCT-116 colon
NCI/ADR-RES ovarian = system: NCI/ADR-RES ovarian
OVCAR-4 ovarian = system: OVCAR-4 ovarian
HCC-2998 colon = system: HCC-2998 colon
SW-620 colon = system: SW-620 colon
SR leukemia = system: SR leukemia
A498 renal = system: A498 renal
KM12 colon = system: KM12 colon
SF-295 CNS = system: SF-295 CNS
OVCAR-3 ovarian = system: OVCAR-3 ovarian
HOP-62 NSCLC = system: HOP-62 NSCLC

CCN(CC)c1ccc(/C=C/C2=NN(c3cccc(S(=O)(=O)O)c3)C3(C2)SCC(=O)N3c2nc3ccccc3s2)cc1 (configuration not stated)
TGI (UO-31 renal): > 100 µM
TGI (HT29 colon): > 100 µM
TGI (MOLT-4 leukemia): > 100 µM
TGI (SF-268 CNS): > 100 µM
TGI (BT-549 breast): > 100 µM
TGI (SNB-19 CNS): > 100 µM
TGI (MCF7 breast): 91.2 µM
TGI (M14 melanoma): > 100 µM
TGI (RXF 393 renal): > 100 µM
TGI (SK-MEL-2 melanoma): > 100 µM
TGI (HS 578T breast): > 100 µM
TGI (NCI-H460 lung): > 100 µM
TGI (U251 CNS): > 100 µM
TGI (OVCAR-8 ovarian): > 100 µM
TGI (K-562 leukemia): > 100 µM
TGI (NCI-H522 lung): 67.2 µM
TGI (NCI-H226 lung): > 100 µM
TGI (SNB-75 CNS): > 100 µM
TGI (ACHN renal): > 100 µM
TGI (MALME-3M melanoma): > 100 µM
TGI (CCRF-CEM leukemia): 55 µM
TGI (T-47D breast): 53.9 µM
TGI (COLO 205 colon): 81.1 µM
TGI (LOX IMVI melanoma): > 100 µM
TGI (IGROV1 ovarian): > 100 µM
TGI (TK-10 renal): 94 µM
TGI (MDA-N): > 100 µM
TGI (OVCAR-5 ovarian): > 100 µM
TGI (UACC-257 melanoma): > 100 µM
TGI (HOP-92 NSCLC): > 100 µM
TGI (SN12C renal): > 100 µM
TGI (CAKI-1 renal): > 100 µM
TGI (RPMI-8226 leukemia): 66.8 µM
TGI (UACC-62 melanoma): > 100 µM
TGI (SF-539 CNS): > 100 µM
TGI (SK-MEL-5 melanoma): > 100 µM
TGI (EKVX NSCLC): > 100 µM
TGI (DU-145 prostate): 75.7 µM
TGI (PC-3 prostate): > 100 µM
TGI (MDA-MB-231 breast): > 100 µM
TGI (HL-60(TB) leukemia): 80.3 µM
TGI (A549 NSCLC): > 100 µM
TGI (MDA-MB-435): 47.2 µM
TGI (HCT-15 colon): > 100 µM
TGI (786-0 renal): > 100 µM
TGI (NCI-H23 lung): > 100 µM
TGI (SK-MEL-28 melanoma): > 100 µM
TGI (HCT-116 colon): > 100 µM
TGI (NCI/ADR-RES ovarian): > 100 µM
TGI (OVCAR-4 ovarian): > 100 µM
TGI (HCC-2998 colon): > 100 µM
TGI (SW-620 colon): > 100 µM
TGI (SR leukemia): 86.2 µM
TGI (A498 renal): 99 µM
TGI (KM12 colon): 60.5 µM

COC(=O)C12C3C4C1C1C2C3C41C(=O)NC(C)(C)CC(=O)O (configuration not stated)
TGI (UO-31 renal): > 100 µM
TGI (HT29 colon): > 100 µM
TGI (MOLT-4 leukemia): > 100 µM
TGI (SF-268 CNS): > 100 µM
TGI (BT-549 breast): > 100 µM
TGI (SNB-19 CNS): > 100 µM
TGI (MCF7 breast): > 100 µM
TGI (M14 melanoma): > 100 µM
TGI (RXF 393 renal): > 100 µM
TGI (SK-MEL-2 melanoma): > 100 µM
TGI (HS 578T breast): > 100 µM
TGI (NCI-H460 lung): 61 µM
TGI (U251 CNS): > 100 µM
TGI (OVCAR-8 ovarian): > 100 µM
TGI (NCI-H522 lung): > 100 µM
TGI (NCI-H226 lung): > 100 µM
TGI (SNB-75 CNS): > 100 µM
TGI (ACHN renal): > 100 µM
TGI (MALME-3M melanoma): > 100 µM
TGI (CCRF-CEM leukemia): > 100 µM
TGI (T-47D breast): > 100 µM
TGI (COLO 205 colon): > 100 µM
TGI (LOX IMVI melanoma): > 100 µM
TGI (IGROV1 ovarian): > 100 µM
TGI (TK-10 renal): > 100 µM
TGI (MDA-N): > 100 µM
TGI (OVCAR-5 ovarian): > 100 µM
TGI (UACC-257 melanoma): > 100 µM
TGI (HOP-92 NSCLC): > 100 µM
TGI (SN12C renal): > 100 µM
TGI (CAKI-1 renal): > 100 µM
TGI (SF-295 CNS): > 100 µM
TGI (RPMI-8226 leukemia): > 100 µM
TGI (UACC-62 melanoma): > 100 µM
TGI (SF-539 CNS): > 100 µM
TGI (OVCAR-3 ovarian): > 100 µM
TGI (SK-MEL-5 melanoma): > 100 µM
TGI (EKVX NSCLC): > 100 µM
TGI (DU-145 prostate): > 100 µM
TGI (PC-3 prostate): > 100 µM
TGI (MDA-MB-231 breast): > 100 µM
TGI (HL-60(TB) leukemia): > 100 µM
TGI (A549 NSCLC): > 100 µM
TGI (MDA-MB-435): > 100 µM
TGI (HCT-15 colon): > 100 µM
TGI (786-0 renal): > 100 µM
TGI (NCI-H23 lung): > 100 µM
TGI (SK-MEL-28 melanoma): > 100 µM
TGI (HCT-116 colon): > 100 µM
TGI (NCI/ADR-RES ovarian): > 100 µM
TGI (OVCAR-4 ovarian): > 100 µM
TGI (HCC-2998 colon): > 100 µM
TGI (SW-620 colon): > 100 µM
TGI (SR leukemia): > 100 µM
TGI (A498 renal): > 100 µM
TGI (KM12 colon): > 100 µM
TGI (HOP-62 NSCLC): > 100 µM
